Results published in article PMC6994307 (Current Therapeutic Research, Clinical and Experimental, 2019).
“Also recorded” adds a separate entry of the source. Read-outs that look alike come from different tables or passages of the source.

Key:
[1] = tested on: CB1; conditions: CP55,940 as the tracer; cited from earlier work
[2] = molecular target: T1, human CB1 receptor (Homo sapiens, UniProt P21554); type: binding; conditions: for Effect on binding of agonist CP55,940 (in words): [3H]CP55,940 tracer, modulator 1 nM–10 µM
T1 sequence (P21554 whole entry): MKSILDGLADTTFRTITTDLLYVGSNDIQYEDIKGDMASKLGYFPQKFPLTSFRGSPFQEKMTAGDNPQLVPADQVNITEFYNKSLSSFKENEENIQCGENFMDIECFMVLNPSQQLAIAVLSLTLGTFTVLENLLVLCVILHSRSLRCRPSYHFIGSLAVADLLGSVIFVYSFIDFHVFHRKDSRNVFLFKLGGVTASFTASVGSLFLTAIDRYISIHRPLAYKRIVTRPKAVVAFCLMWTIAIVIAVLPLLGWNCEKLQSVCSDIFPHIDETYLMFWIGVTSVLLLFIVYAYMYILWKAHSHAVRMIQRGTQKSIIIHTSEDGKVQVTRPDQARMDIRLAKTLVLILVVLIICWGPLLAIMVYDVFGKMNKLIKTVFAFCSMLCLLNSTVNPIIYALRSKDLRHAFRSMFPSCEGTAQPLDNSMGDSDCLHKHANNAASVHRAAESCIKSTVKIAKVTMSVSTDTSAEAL

[3] = Computational prediction of physicochemical properties and solubility
[4] = molecular target: T1, human CB1 receptor; type: binding; conditions: for cooperativity factor: [3H]SR141716A (1 nM) as orthosteric inverse agonist; for Effect on SR141716A binding (in words): [3H]SR141716A tracer, modulator 1 nM–10 µM
[5] = tested on: CB1; conditions: cited from earlier work
[6] = tested on: CB1; conditions: cited from earlier work; remark: listed apart in the source
[7] = tested on: CB1; conditions: cited from earlier work; remark: listed apart in the source
[8] = tested on: rats; conditions: cited from earlier work
[9] = read-out: KB (equilibrium dissociation), [3H]CP55,940 (0.5 nM) as orthosteric ligand, 95% CI in parentheses, NB = no detectable binding with test compound up to 10 µM
[10] = on introducing ethanolamine into LDK1321 (6a) and LDK1324 (6b)

SMILES	Kb [2]	Effect on binding of agonist CP55,940 (in words) [2]	Kb [2, 9]	cooperativity factor [4]	Effect on SR141716A binding (in words) [4]	other results
N#Cc1ccc(NC(=O)Nc2cccc(-c3cccc(N4CCCC4)n3)c2)cc1	–	–	–	–	–	EC50 [1]: 0.055 µM
CC(=O)Nc1cccc(NC(=O)Nc2ccc(C#N)cc2)c1 [LDK1317, N-(3-(3-(4-Cyanophenyl)ureido)phenyl)acetamide]	0.11 µM	enhanced the binding of agonist CP55,940 to some degree	–	–	–	–
N#Cc1ccc(NC(=O)Nc2ccc3[nH]ccc3c2)cc1 [LDK1318, 1-(4-Cyanophenyl)-3-(1H-indol-5-yl)urea]	–	no binding	> 10 µM	–	–	–
N#Cc1ccc(NC(=O)Nc2ccc3cc[nH]c3c2)cc1 [LDK1319, 1-(4-Cyanophenyl)-3-(1H-indol-6-yl)urea]	–	no binding	> 10 µM	–	–	–
CN(C)c1ccc(NC(=O)Nc2ccc(C#N)cc2)cc1 [LDK1320, 1-(4-Cyanophenyl)-3-(4-(dimethylamino)phenyl)urea]	0.83 µM	–	–	–	–	Effect on binding of agonist CP55,940 (in words) ([2]; listed as LDK1320 (12b)): enhanced the binding of agonist CP55,940 to some degree; Enhancement of calculated intrinsic solubility ([3]; vs PSNCBAM-1, on reducing the number of rings to 2): about 400 fold
N#Cc1ccc(NC(=O)Nc2cccc(-c3ccnc(Cl)n3)c2)cc1 [LDK1321, 1-(3-(2-Chloropyrimidin-4-yl)phenyl)-3-(4-cyanophenyl)urea]	0.085 µM	–	–	< 1	robust, dose-dependent decrease	Effect on binding of agonist CP55,940 (in words) ([2]; listed as LDK1321 (6a)): enhanced the binding of agonist CP55,940 to some degree; also recorded: successful in enhancing the binding of agonist CP55,940
N#Cc1ccc(NC(=O)Nc2cccc(-c3ccnc(NCCO)n3)c2)cc1 [LDK1323, 1-(4-Cyanophenyl)-3-(3-(2-((2-hydroxyethyl)amino)pyrimidin-4-yl)phenyl)urea]	0.2 µM	–	–	< 1	modest decrease	Effect on binding of agonist CP55,940 (in words) ([2]; listed as LDK1323 (8a)): enhanced the binding of agonist CP55,940 to some degree; also recorded: modest, but positive influence; Enhancement of calculated intrinsic solubility [3, 10]: approximately 20 fold
N#Cc1ccc(NC(=O)Nc2cccc(-c3cccc(Cl)n3)c2)cc1 [LDK1324, 1-(3-(6-Chloropyridin-2-yl)phenyl)-3-(4-cyanophenyl)urea]	0.3 µM	–	–	< 1	robust, dose-dependent decrease	Effect on binding of agonist CP55,940 (in words) ([2]; listed as LDK1324 (6b)): enhanced the binding of agonist CP55,940 to some degree
N#Cc1ccc(NC(=O)Nc2cccc(-c3cccc(NCCO)n3)c2)cc1 [LDK1325, 1-(4-Cyanophenyl)-3-(3-(6-((2-hydroxyethyl)amino)pyridin-2-yl)phenyl)urea]	–	–	> 10 µM	–	–	Effect on binding of agonist CP55,940 (in words) ([2]; listed as LDK1325 (8b)): no binding; also recorded: lost its binding affinity; Enhancement of calculated intrinsic solubility [3, 10]: approximately 20 fold
O=C(Nc1ccc(Cl)cc1)Nc1cccc(-c2cccc(N3CCCC3)n2)c1 [PSNCBAM-1, 1-(4-Chlorophenyl)-3-{3-[6-(pyrrolidin-1-yl)pyridin-2-yl]phenyl} urea]	–	–	–	–	–	Effect on binding of the CB1 agonist CP55,940 [5]: enhanced binding; Effect on binding of the inverse agonist SR141716A [5]: reducing the binding; Effect in GTPγS assay [6]: noncompetitive, inhibitory effects; Effect in cAMP assay [7]: noncompetitive, inhibitory effects; Food intake and body weight [8]: reduced food intake and body weight
